Assay results reported in the supplement of paper PMC11208160.

Assay: recombinant barcode read abundance after kanamycin selection (control-corrected) (log10(CPM+1)); higher = more efficient recombination; sequences stand for … in AGTGCAGAGAAAATCGGCCAGTTTTCTCTGCCTGCAGTCCGCATGCCGT…AGATTTATGCAGCGGACTGCCTTTCTCCCAAAGTGATAAACCGGACAGTATCATGGACCGGTTTTCCCGGTAATCCGTATTTGCAAGGTTGGTTTCACT; site = the 11-nt target
Summary of the method: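 Each value is log10(CPM+1). It describes recombination efficiency, taken as averaged, control-corrected counts per million of barcodes at recombinant junctions. The pooled E. coli library paired targets with IS621 bridge RNA target-binding loops, was co-electroporated with a donor plasmid, and was plated twice on chloramphenicol/ampicillin LB agar (control) and twice on chloramphenicol/ampicillin/kanamycin containing 0.1 mM IPTG.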
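Further: IS621 recombinase and bridge RNA in Escherichia coli cells.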

Row | Sequence | recombinant barcode read abundance (log10)
1 | GCCAACCCTTGGGTTCTAACCTGTTGCTT (site GCCAACCCTAA) | 0.0414
2 | GCCAACCCTTGGGTTCTAACCTGTTGCTT (site GCCAACCCTAC) | 0.0528
3 | GCCAACCCTTGGGTTCTAACCTGTTGCTT (site GCCAACCCTAG) | 0.412
4 | GCCAACCCTTGGGTTCTAACCTGTTGCTT (site GCCAACCCTAT) | 0.39
5 | GCCATCACTTGGGTTCTAACCTGTTGCCT (site GCCATAACTAG) | 0.00743
6 | GCCATCACTTGGGTTCTAACCTGTTGCCT (site GCCATCACTAG) | 0.112
7 | GCCATCACTTGGGTTCTAACCTGTTGCCT (site GCCATGACTAG) | 0.152
8 | GCCATCACTTGGGTTCTAACCTGTTGCCT (site GCCATTACTAG) | 0.12
9 | GCCATCTCTTGGGTTCTAACCTGTTGCCT (site GCCATCTCTAG) | 0.0476
10 | GCCATCTCTTGGGTTCTAACCTGTTGCCT (site GCCGTCTCTAG) | 0.0992
11 | GCCATGTCTTGGGTTCTAACCTGTTGCCT (site GCCATGTCTAG) | 0.502
12 | GCCATGTCTTGGGTTCTAACCTGTTGCCT (site GTCATGTCTAG) | 0.0158
13 | GCCCATCCTTGGGTTCTAACCTGTTGCTA (site GCCCATCCTTA) | 1.36
14 | GCCCATCCTTGGGTTCTAACCTGTTGCTA (site TAGTGAGCTCG) | 0.222
15 | GCCCCATCTTGGGTTCTAACCTGTTGCCT (site GCCCAATCTAG) | 0.00703
16 | GCCCCATCTTGGGTTCTAACCTGTTGCCT (site GCCCCATCTAG) | 0.601
17 | GCCCCATCTTGGGTTCTAACCTGTTGCCT (site GCCCGATCTAG) | 0.37
18 | GCCCCATCTTGGGTTCTAACCTGTTGCCT (site GCCCTATCTAG) | 0.384
19 | GCCCCGCCTTGGGTTCTAACCTGTTGCAG (site GCCACGCCTCT) | 0.319
20 | GCCCCGCCTTGGGTTCTAACCTGTTGCAG (site GCCCCGCCTCT) | 1.02
21 | GCCCCGCCTTGGGTTCTAACCTGTTGCAG (site GCCGCGCCTCT) | 0.00897
22 | GCCCCGCCTTGGGTTCTAACCTGTTGCAG (site GCCTCGCCTCT) | 0.0556
23 | GCCCGGGCTTGGGTTCTAACCTGTTGCCG (site GCCAGGGCTCG) | 0.144
24 | GCCCGGGCTTGGGTTCTAACCTGTTGCCG (site GCCCGGGCTCG) | 0.309
25 | GCCCGGGCTTGGGTTCTAACCTGTTGCCG (site GCCGGGGCTCG) | 0.0496
26 | GCCCGGGCTTGGGTTCTAACCTGTTGCCG (site GCCTGGGCTCG) | 0.0679

Row | Sequence | recombinant barcode read abundance (log10)
27 | GCCCGTGCTTGGGTTCTAACCTGTTGCCT (site GCACGTGCTAG) | 0.377
28 | GCCCGTGCTTGGGTTCTAACCTGTTGCCT (site GCCCGTGCTAG) | 1.31
29 | GCCCGTGCTTGGGTTCTAACCTGTTGCCT (site GCGCGTGCTAG) | 0.177
30 | GCCCGTGCTTGGGTTCTAACCTGTTGCCT (site GCTCGTGCTAG) | 0.0122
31 | GCCCTGCCTTGGGTTCTAACCTGTTGCCT (site GCACTGCCTAG) | 0.705
32 | GCCCTGCCTTGGGTTCTAACCTGTTGCCT (site GCCCTGCCTAG) | 1.43
33 | GCCCTTGCTTGGGTTCTAACCTGTTGCCT (site GAACTTGCTAG) | 0.114
34 | GCCCTTGCTTGGGTTCTAACCTGTTGCCT (site GCCCTTGCTAG) | 1.79
35 | GCCGACACTTGGGTTCTAACCTGTTGCCT (site GCCGAAACTAG) | 0.0569
36 | GCCGACACTTGGGTTCTAACCTGTTGCCT (site GCCGACACTAG) | 0.13
37 | GCCGACACTTGGGTTCTAACCTGTTGCCT (site GCCGAGACTAG) | 0.284
38 | GCCGACACTTGGGTTCTAACCTGTTGCCT (site GCCGATACTAG) | 0.17
39 | GCCGAGTCTTGGGTTCTAACCTGTTGCTC (site GCCGAGTCTAA) | 0.191
40 | GCCGAGTCTTGGGTTCTAACCTGTTGCTC (site GCCGAGTCTCA) | 0.0833
41 | GCCGAGTCTTGGGTTCTAACCTGTTGCTC (site GCCGAGTCTGA) | 1.2
42 | GCCGAGTCTTGGGTTCTAACCTGTTGCTC (site GCCGAGTCTTA) | 0.371
43 | GCCGATCCTTGGGTTCTAACCTGTTGCCT (site GACGATCCTAG) | 0.332
44 | GCCGATCCTTGGGTTCTAACCTGTTGCCT (site GCCGATCCTAG) | 0.12
45 | GCCGATCCTTGGGTTCTAACCTGTTGCCT (site GGCGATCCTAG) | 0.205
46 | GCCGATCCTTGGGTTCTAACCTGTTGCCT (site GTCGATCCTAG) | 0.0291
47 | GCCGCGCCTTGGGTTCTAACCTGTTGCAG (site GCCACGCCTCT) | 0.0533
48 | GCCGCGCCTTGGGTTCTAACCTGTTGCAG (site GCCCCGCCTCT) | 0.271
49 | GCCGCGCCTTGGGTTCTAACCTGTTGCAG (site GCCGCGCCTCT) | 0.116
50 | GCCGCGCCTTGGGTTCTAACCTGTTGCAG (site GCCTCGCCTCT) | 0.13
51 | GCCGCTCCTTGGGTTCTAACCTGTTGCCT (site GCCGCTCCTAG) | 0.163
52 | GCCGCTCCTTGGGTTCTAACCTGTTGCCT (site GCGGTTCCTAG) | 0.098

Row | Sequence | recombinant barcode read abundance (log10)
53 | GCCTATGCTTGGGTTCTAACCTGTTGCCT (site GACTATGCTAG) | 0.115
54 | GCCTATGCTTGGGTTCTAACCTGTTGCCT (site GCCTATGCTAG) | 0.852
55 | GCCTATGCTTGGGTTCTAACCTGTTGCCT (site GGCTATGCTAG) | 0.0448
56 | GCCTATGCTTGGGTTCTAACCTGTTGCCT (site GTCTATGCTAG) | 0.0718
57 | GCCTCTTCTTGGGTTCTAACCTGTTGCCT (site GCCTCTTCTAG) | 0.426
58 | GCCTCTTCTTGGGTTCTAACCTGTTGCCT (site GTCTCTACTAG) | 0.0556
59 | GCCTGGTCTTGGGTTCTAACCTGTTGCCT (site GCCTGGTCTAG) | 1.01
60 | GCCTGGTCTTGGGTTCTAACCTGTTGCCT (site TCCTCGTCTAG) | 0.122
61 | GCGACGCCTTGGGTTCTAACCTGTTGCCT (site ACGAAGCCTAG) | 0.0187
62 | GCGACGCCTTGGGTTCTAACCTGTTGCCT (site GCGACGCCTAG) | 1.26
63 | GCGACTCCTTGGGTTCTAACCTGTTGCCT (site GCGACTCCTAA) | 0.215
64 | GCGACTCCTTGGGTTCTAACCTGTTGCCT (site GCGACTCCTAG) | 0.699
65 | GCGATCCCTTGGGTTCTAACCTGTTGCTT (site CATGAGACTCC) | 0.0103
66 | GCGATCCCTTGGGTTCTAACCTGTTGCTT (site GCGATCCCTAA) | 0.798
67 | GCGCACCCTTGGGTTCTAACCTGTTGCAG (site CTGCACCCTCT) | 0.0518
68 | GCGCACCCTTGGGTTCTAACCTGTTGCAG (site GCGCACCCTCT) | 1.15
69 | GCGCATGCTTGGGTTCTAACCTGTTGCCT (site GCGCATGCTAG) | 0.788
70 | GCGCATGCTTGGGTTCTAACCTGTTGCCT (site GTGCCTGCTAG) | 0.41
71 | GCGCCCTCTTGGGTTCTAACCTGTTGCCT (site ACGCCCTCTAG) | 0.0862
72 | GCGCCCTCTTGGGTTCTAACCTGTTGCCT (site GCGCCCTCTAG) | 0.7
73 | GCGCGAACTTGGGTTCTAACCTGTTGCCT (site GCACGAACTAG) | 0.733
74 | GCGCGAACTTGGGTTCTAACCTGTTGCCT (site GCCCGAACTAG) | 0.047
75 | GCGCGAACTTGGGTTCTAACCTGTTGCCT (site GCGCGAACTAG) | 0.608
76 | GCGCGAACTTGGGTTCTAACCTGTTGCCT (site GCTCGAACTAG) | 0.125
77 | GCGGAATCTTGGGTTCTAACCTGTTGCCT (site GCGGAATCTAG) | 1.28
